{
  "source": "patent US11717531B2",
  "about": "“Preeclampsia” (ASTON UNIVERSITY, priority 2015, dated 2023)",
  "key": {"sFlt-1": {"system": "sFlt-1", "assay": "sFlt-1 release from HUVEC, ELISA of conditioned media", "format": "cell-based, human", "conditions": "24 hours", "experimental": "(§1) Human umbilical vein endothelial cells (HUVECs) were isolated and cultured in M199 medium as described previously (Bussolati et al, 2001). Experiments were performed on third or fourth passage HUVEC.\nChemically synthesized double-stranded microRNA mimic and single-stranded inhibitor against miR-122 (mi-122 and anti-122) and miR-374b (mi-374b and anti-374b) were purchased from Qiagen and the efficiency was tested by Qpcr (FIG. 6A, B). HUVECs were trypsinized, and 1×10^6 cells were electroporated with ≈0.6 ug mimic-122 or mimic-374b, =3 ug anti-122 or anti-374 or control molecules using electroporation (Amaxa GmbH, Cologne, Germany) as described previously (Cudmore et al., 2007).\nEnzyme-linked immunosorbent assay (ELISA) kits for human sFlt-1 was obtained from R&D Systems and performed according to the manufacturer's specifications.\nEnzyme-linked immunosorbent assay (ELISA) kits for human sFlt-1, sEng and P1GF were obtained from R&D Systems and performed according to the manufacturer's specifications."}, "miR-122": {"system": "miR-122", "assay": "qPCR of miR-122 expression in treated HUVEC", "format": "cell-based, human", "conditions": "24 hours", "experimental": "(§2) FIG. 2. MiR-122 and miR-374b are regulated by various agents that regulate sFlt-1 release. HUVEC cells were treated with 10 uM Hemin (A), 2 uM or 20 uM Pravastatin (B) 20 ng/ml VEGF-A (C) or 20 ng/ml VEGF-E (D) for 24 hours. Total RNA of the treated cells was isolated and the expression of miR-122 and miR-374b was measured by quantitative PCR. The relative miR-122 and miR-374b expression was normalized to RNU6.\n(§3) FIG. 3. Hmox1 regulates miR-122 and miR-374b expression. HUVEC cells were infected by adenovirus overexpressiong Hmox1 (A) or transfected with siRNA against Hmox1 (B) for 24 hours and the relative expression of miR-122 and miR-374b was measured by qPCR.\nas §1\n(§4) Sample preparation and real-time quantitative PCR was performed as described previously (Cudmore et al., 2007)."}, "miR-374b": {"system": "miR-374b", "assay": "qPCR of miR-374b expression in treated HUVEC", "format": "cell-based, human", "conditions": "24 hours", "experimental": "as §2, §3, §1, §4"}, "miR-144": {"system": "miR-144", "assay": "qPCR of miR-144 expression in treated HUVEC", "format": "cell-based, human", "conditions": "hemin 10 uM", "experimental": "as §1, §4"}, "preeclampsia": {"system": "preeclampsia", "conditions": "low-dose, started before 16 weeks' gestation, high-risk women; cited from earlier work"}, "miR-152": {"system": "miR-152", "assay": "qPCR of miR-152 expression in HUVEC", "format": "cell-based, human", "conditions": "growth factor 20 ng/ml, 24 hours", "experimental": "FIG. 9 Hypoxia, inflammatory cytokine or angiogenic growth factor stimulation increases microRNA-152 expression in endothelial cells and placental explants. Human placental explants was treated with (A) inflammatory cytokine mix (TNF-α, 20 ng/ml, IFN-γ, 20 ng/ml and IL-1β, 2 ng/ml), (B) hypoxia (1% 02) condition or (C) combination of cytokine mix and hypoxia condition and assayed for miR-152 expression using qPCR. Similarly, HUEVC cells were treated with (D) hypoxia (1% 02) condition, VEGF-E (20 ng/ml, E) or FGF-2 (20 ng/ml, F) for 24 hours and used for qPCR analysis of miR-152 expression. Moreover, overexpression of miR-152 inhibited PlGF release, but not the sFlt-1 and sEng in endothelial cells. HUVECs were electroporated with mimic-152 or control mimic-con. After resting for 24 hours, the transfected cells were treated with vehicle or VEGF-E (20 ng/ml) in the conditioned media. […] Data is shown as mean+SEM and analyzed by Student t-test.\nHuman umbilical vein endothelial cells (HUVECs) were isolated and cultured in M199 medium as described previously (Bussolati et al, 2001). […] Briefly, human placental villus explants were incubated under stimulation of test substances or hypoxia condition and collected for quantitative PCR of miR-152. […]\nas §4"}},
  "data": [
    {"molecule": "hemin", "values": [
      {"measurement": "recovery of hemin-reduced sFlt-1 release by VEGF-E stimulation", "setting": "sFlt-1; hemin 10 uM plus VEGF-E", "value": "cannot be recovered"},
      {"measurement": "sFlt-1 release in endothelial cells", "setting": "sFlt-1; hemin 10 uM", "value": "decreased"},
      {"measurement": "increase of miR-122 expression", "setting": "miR-122; hemin 10 uM", "value": 20, "unit": "fold"},
      {"measurement": "increase of miR-374b expression", "setting": "miR-374b; hemin 10 uM", "value": 2.7, "unit": "fold"},
      {"measurement": "effect on miR-144 expression", "setting": "miR-144", "value": "no significant effect"}
    ]},
    {"molecule": "vascular endothelial growth factor A [VEGF-A]", "values": [
      {"measurement": "decrease of miR-122 expression", "setting": "miR-122; growth factor 20 ng/ml", "value": 47, "unit": "%"},
      {"measurement": "reduction of miR-374b expression", "setting": "miR-374b; growth factor 20 ng/ml", "value": 20, "unit": "%"}
    ]},
    {"molecule": "CC[C@H](C)C(=O)O[C@H]1C[C@H](O)C=C2C=C[C@H](C)[C@H](CC[C@@H](O)C[C@@H](O)CC(=O)O)[C@H]21", "note": "[pravastatin]", "values": [
      {"measurement": "induction of miR-122 expression", "setting": "miR-122; pravastatin 2 uM and 20 uM", "value": "3-9 fold"},
      {"measurement": "induction of miR-374b expression", "setting": "miR-374b; pravastatin 2 uM and 20 uM", "value": 2.7, "unit": "fold"}
    ]},
    {"molecule": "CC(=O)Oc1ccccc1C(=O)O", "note": "[aspirin]", "values": [
      {"measurement": "prevention of PE, severe PE and IUGR", "setting": "preeclampsia", "value": "up to 50%"}
    ]},
    {"molecule": "FGF-2: angiogenic growth factor used at 20 ng/ml", "values": [
      {"measurement": "elevation of miR-152 expression", "setting": "miR-152", "value": "~65", "unit": "%"}
    ]}
  ]
}
